Test results taken from patent publication US20120015961A1, “ISOTHIOUREA DERIVATIVES OR ISOUREA DERIVATIVES HAVING BACE1 INHIBITORY ACTIVITY” (SHIONOGI & CO., LTD., priority 2009, published 2012).
pIC50: −log10 of the molar value.

Key:
[1] = system: Neuroblastoma SH-SY5Y cells (SH/APPwt) with human wild-type β-APP excessively expressed; experiment: Measurement of β-amyloid (Aβ) production inhibitory effect in cell; type: cell-based; conditions: amount needed to inhibit Aβ production by 50%, 24 hours incubation, Amyloid β1-40 HTRF
Method: Neuroblastoma SH-SY5Y cells (SH/APPwt) with human wild-type β-APP excessively expressed therein were prepared at 8×10^5 cells/mL, and 150 μl portions thereof were inoculated into each well of a 96-well culture plate (Falcon). The cells were cultured for 2 hours at 37° C. in a 5% gaseous carbon dioxide incubator. Then, a solution which had been preliminarily prepared by adding and suspending the test compound (DMSO (dimethyl sulfoxide) solution) so as to be 2 μl/50 μl medium was added to the cell sap. Namely, the final DMSO concentration was 1%, and the amount of the cell culture was 200 μl. After the incubation was performed for 24 hours from the addition of the test compound, 100 μl of the culture supernatant was collected from each fraction. The amount of the Aβ in each fraction was measured.
The […] was measured as follows. 10 μl of a homogeneous time resolved fluorescence (HTRF) measurement reagent (Amyloid β1-40 peptide; IBA Molecular Holding, S.A.) and 10 μl of the culture supernatant were put into a 384-well half area microplate (black microplate, Costar) and mixed with each other, and then left standing overnight at 4° C. while the light was shielded. Then, the fluorescence intensity (excitation wavelength: 337 nm, measurement wavelength: 620 nm and 665 nm) was measured with a Wallac 1420 multilabel counter (Perkin Elmer life sciences). The Aβ amount was determined from the count rate at each measurement wavelength (10000×Count 665/Count 620), and the amount needed to inhibit Aβ production by 50% (IC50) was calculated from at least six different dosages.

Recombinant human BACE1 = molecular target: T1, Recombinant human BACE1 (Homo sapiens, UniProt P56817); experiment: Assay of BACE1 inhibiting activity; type: biochemical; conditions: 50% inhibitory concentration against enzymatic activity, pH 5.0, 30° C., 3 hours
T1 construct: purchased R&D Systems
Method: 48.5 μL of substrate peptide solution (Biotin-XSEVNLDAEFRHDSGC-Eu: Xεε-amino-n-capronic acid, Eu=Europium cryptate) was added to each well of 96-hole half-area plate (a black plate: Costar Corporation), and after addition of 0.5 μl of the test compound (dissolved in […]) and 1 μl of Recombinant human BACE1 (R&D Systems), the reaction mixture was incubated at 30° C. for 3 hours. The substrate peptide was synthesized by reacting Cryptate TBPCOOH mono SMP (CIS bio international) with Biotin-XSEVNLDAEFRHDSGC (Peptide Institute, Inc.). The final concentrations of the substrate peptide and Recombinant human BACE1 were adjusted to 18 nM and 7.4 nM respectively, and the reaction was performed in sodium acetate buffer (50 mM sodium acetate, pH 5.0, 0.008% Triton X-100). After the completion of reaction, 50 μl of 8.0 μg/ml Streptavidin-XL665 (CIS bio international) dissolved in phosphate buffer (150 mM K2HPO4—KH2PO4, pH 7.0, 0.008% Triton X-100, 0.8 M KF) was added to each well and left stand at 30° C. for an hour. Then, fluorescence intensity was measured (excitation wavelength: 320 nm, measuring wavelength: 620 nm and 665 nm) using Wallac 1420 multilabel counter (Perkin Elmer life sciences). Enzymatic activity was determined from counting ratio of each wavelength (10,000×Count 665/Count 620) and 50% inhibitory concentration against the enzymatic activity was calculated.

T1 sequence (P56817 46-501): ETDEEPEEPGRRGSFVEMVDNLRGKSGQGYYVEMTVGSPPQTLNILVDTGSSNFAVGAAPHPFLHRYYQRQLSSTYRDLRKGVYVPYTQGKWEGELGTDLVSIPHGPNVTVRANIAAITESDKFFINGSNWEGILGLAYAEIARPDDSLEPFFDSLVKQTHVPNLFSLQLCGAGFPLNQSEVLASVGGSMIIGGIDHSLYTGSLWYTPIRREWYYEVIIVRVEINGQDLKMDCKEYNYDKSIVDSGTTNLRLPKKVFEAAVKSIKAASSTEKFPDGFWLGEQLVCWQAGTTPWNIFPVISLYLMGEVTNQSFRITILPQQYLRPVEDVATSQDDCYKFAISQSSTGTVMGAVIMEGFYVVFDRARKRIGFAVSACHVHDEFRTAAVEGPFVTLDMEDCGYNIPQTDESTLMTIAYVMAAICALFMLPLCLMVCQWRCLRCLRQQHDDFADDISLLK

Row | SMILES | pIC50 ([1]; Homo sapiens, SH-SY5Y, 24 h) | pIC50 (Recombinant human BACE1) | pIC50 [1]
1 | CO/C(N)=N/C(C)(c1ccc(F)cc1)c1cccc(NC(=O)c2ccc(C#N)cn2)c1 (single isomer, unassigned) [Compound 101] | ≥ 6.00 | ≥ 6.00 | –
2 | CC#CCOc1cnc(C(=O)Nc2cccc(C/N=C(/N)SCc3cccnc3)c2)cn1 [Compound 10] | ≥ 6.00 | ≥ 6.00 | –
3 | CC#CCOc1cnc(C(=O)Nc2cccc(C3(/N=C(/N)SC)CC3)c2)cn1 [Compound 14] | ≥ 6.00 | ≥ 6.00 | –
4 | CC#CCOc1cnc(C(=O)Nc2ccc(F)c(C/N=C(/N)SC)c2)cn1 [Compound 16] | ≥ 6.00 | ≥ 6.00 | –
5 | CC#CCOc1cnc(C(=O)Nc2cccc(C/N=C(/N)SCCCO)c2)cn1 [Compound 17] | ≥ 6.00 | ≥ 6.00 | –
6 | CC#CCOc1cnc(C(=O)Nc2cccc(C(/N=C(/N)SC)c3ccc(OC)cc3)c2)cn1 (centres unmarked) [Compound 21] | ≥ 6.00 | ≥ 6.00 | –
7 | COc1ccc(C(/N=C(/N)SC)c2cccc(NC(=O)c3ncc(Cl)cc3Cl)c2)cc1 (centres unmarked) [Compound 22] | ≥ 6.00 | – | –
8 | COc1ccc(C(/N=C(/N)SC)c2cccc(NC(=O)c3ccc(C#N)cn3)c2)cc1 (centres unmarked) [Compound 23] | ≥ 6.00 | – | –
9 | COc1ccc(C(/N=C(/N)SC)c2cccc(NC(=O)c3cnc(OC)cn3)c2)cc1 (centres unmarked) [Compound 24] | ≥ 6.00 | – | –
10 | COc1cnc(C(=O)Nc2ccc(F)c(C(C)/N=C(/N)SC)c2)cn1 (centres unmarked) [Compound 26] | ≥ 6.00 | – | –
11 | CS/C(N)=N\C(C)c1cc(NC(=O)c2ccc(C#N)cn2)ccc1F (centres unmarked) [Compound 27] | ≥ 6.00 | – | –
12 | CO/C(N)=N/Cc1cccc(NC(=O)c2ccc(C#N)cn2)c1 [Compound 33] | ≥ 6.00 | – | –
13 | CCCO/C(N)=N\Cc1cccc(NC(=O)c2ccc(C#N)cn2)c1 [Compound 34] | ≥ 6.00 | – | –
14 | COCCO/C(N)=N\Cc1cccc(NC(=O)c2ccc(C#N)cn2)c1 [Compound 35] | ≥ 6.00 | – | –
15 | COCCCO/C(N)=N/Cc1cccc(NC(=O)c2ccc(C#N)cn2)c1 [Compound 37] | ≥ 6.00 | – | –
16 | CO/C(N)=N\Cc1cc(NC(=O)c2ccc(C#N)cn2)ccc1F [Compound 42] | ≥ 6.00 | – | –
17 | CO/C(N)=N\Cc1cc(NC(=O)c2cnc(OC)cn2)ccc1F [Compound 43] | ≥ 6.00 | – | –
18 | CO/C(N)=N\C1(c2cc(NC(=O)c3ccc(C#N)cn3)ccc2F)CC1 [Compound 46] | ≥ 6.00 | – | –
19 | CO/C(N)=N\C1(c2cc(NC(=O)c3cnc(OC)cn3)ccc2F)CC1 [Compound 47] | ≥ 6.00 | – | –
20 | CO/C(N)=N/C(c1cccc(F)c1)c1cccc(NC(=O)c2ccc(C#N)cn2)c1 (centres unmarked) [Compound 51] | ≥ 6.00 | ≥ 6.00 | –
21 | CO/C(N)=N\[C@H](c1ccc(F)cc1)c1cccc(NC(=O)c2ccc(C#N)cn2)c1 [Compound 52] | ≥ 6.00 | ≥ 6.00 | –
22 | CO/C(N)=N/C(c1cccc(NC(=O)c2ccc(C#N)cn2)c1)c1cccc(OC)c1 (centres unmarked) [Compound 53] | ≥ 6.00 | ≥ 6.00 | –
23 | CO/C(N)=N\C(c1cccc(NC(=O)c2ccc(C#N)cn2)c1)c1ccc2c(c1)CCO2 (centres unmarked) [Compound 54] | ≥ 6.00 | ≥ 6.00 | –
24 | CO/C(N)=N\C(c1cccc(NC(=O)c2ccc(C#N)cn2)c1)c1ccc(OC)c(F)c1 (centres unmarked) [Compound 55] | ≥ 6.00 | ≥ 6.00 | –

Row | SMILES | pIC50 ([1]; Homo sapiens, SH-SY5Y, 24 h) | pIC50 (Recombinant human BACE1) | pIC50 [1]
25 | CO/C(N)=N\C(c1ccc(OC)cc1)c1cccc(NC(=O)c2ccc(C#N)cn2)c1 (centres unmarked) [Compound 57] | ≥ 6.00 | ≥ 6.00 | –
26 | CO/C(N)=N\C(c1ccc(OC)cc1)c1cccc(NC(=O)c2cnc(OC)cn2)c1 (centres unmarked) [Compound 58] | 7.74 | ≥ 6.00 | –
27 | CC#CCOc1cnc(C(=O)Nc2cccc(C(C)(C)/N=C(/N)SC)c2)cn1 [Compound 64] | ≥ 6.00 | – | –
28 | CC#CCOc1cnc(C(=O)Nc2ccc(Oc3ccccc3)c(C/N=C(/N)SC)c2)cn1 [Compound 68] | ≥ 6.00 | ≥ 6.00 | –
29 | CC#CCOc1cnc(C(=O)Nc2ccc(Oc3cccc(OC)c3)c(C/N=C(/N)SC)c2)cn1 [Compound 70] | ≥ 6.00 | ≥ 6.00 | –
30 | CO/C(N)=N\c1cccc2ccc(NC(=O)c3ccc(C#N)cn3)cc12 [Compound 75] | ≥ 6.00 | ≥ 6.00 | –
31 | CS/C(N)=N\c1c(C)ccc2ccc(NC(=O)c3ccc(C#N)cn3)cc12 [Compound 79] | ≥ 6.00 | ≥ 6.00 | –
32 | CO/C(N)=N/C(C)c1cccc(NC(=O)c2ccc(C#N)cn2)c1 (centres unmarked) [Compound 82] | ≥ 6.00 | – | –
33 | CO/C(N)=N/C(C)c1cccc(NC(=O)c2cnc(OC)cn2)c1 (centres unmarked) [Compound 83] | ≥ 6.00 | – | –
34 | CO/C(N)=N/C(C)c1cc(NC(=O)c2ccc(C#N)cn2)ccc1F (centres unmarked) [Compound 84] | ≥ 6.00 | – | –
35 | CO/C(N)=N/C(C)c1cc(NC(=O)c2cnc(OC)cn2)ccc1F (centres unmarked) [Compound 85] | ≥ 6.00 | – | –
36 | CO/C(N)=N/C(C)(c1ccc(F)cc1)c1cccc(NC(=O)c2ccc(C#N)cn2)c1 (centres unmarked) [Compound 88] | – | ≥ 6.00 | 7.62
37 | CO/C(N)=N\C(c1ccc(Cl)cc1)c1cccc(NC(=O)c2cnc(C)cn2)c1 (centres unmarked) [Compound 90] | ≥ 6.00 | – | –
38 | CO/C(N)=N\C(c1ccc(Cl)cc1)c1cccc(NC(=O)c2ccc(C#N)cn2)c1 (centres unmarked) [Compound 91] | ≥ 6.00 | ≥ 6.00 | –
39 | CO/C(N)=N\C(c1ccc(Cl)cc1)c1cccc(NC(=O)c2cnc(OC)cn2)c1 (centres unmarked) [Compound 92] | ≥ 6.00 | ≥ 6.00 | –
40 | CO/C(N)=N\C(c1ccc(Cl)cc1)c1cccc(NC(=O)c2ccc(Cl)cn2)c1 (centres unmarked) [Compound 93] | ≥ 6.00 | ≥ 6.00 | –
41 | CC#CCOc1cnc(C(=O)Nc2cccc(C(/N=C(/N)OC)c3ccc(Cl)cc3)c2)cn1 (centres unmarked) [Compound 94] | ≥ 6.00 | 7.49 | –
42 | COC(=N)NC(c1ccc(OC(C)C)cc1)c1cccc(NC(=O)c2ccc(C#N)cn2)c1 (centres unmarked) [Compound 95] | ≥ 6.00 | ≥ 6.00 | –
43 | COC(=N)NC(c1ccc(OCc2ccccc2)cc1)c1cccc(NC(=O)c2ccc(C#N)cn2)c1 (centres unmarked) [Compound 96] | ≥ 6.00 | ≥ 6.00 | –
44 | [2H]C([2H])([2H])Oc1cnc(C(=O)Nc2cccc(C3(/N=C(/N)OC)CC3)c2)cn1 [Compound 97] | ≥ 6.00 | ≥ 6.00 | –
45 | CO/C(N)=N/C(C)(c1ccc(OC)cc1)c1cccc(NC(=O)c2ccc(C#N)cn2)c1 (centres unmarked) [Compound 98] | ≥ 6.00 | ≥ 6.00 | –
46 | CO/C(N)=N\C(c1cccc(NC(=O)c2ccc(C#N)cn2)c1)C(F)(F)F (centres unmarked) [Compound 99] | ≥ 6.00 | – | –
47 | [2H]C([2H])([2H])Oc1ccc(C(NC(=N)OC)c2cccc(NC(=O)c3ccc(C#N)cn3)c2)cc1 (centres unmarked) [Compound 102] | ≥ 6.00 | ≥ 6.00 | –
